The record followed here is the Biogen ADME set (Fang et al. 2023).

The structures appear in SMILES notation. In brackets after ≈: the same amount, converted by molar mass.

For the data set the following is noted: for aqueous solubility: pH 6.8.

`CC(C)c1ccc(CN2CCN(C(=O)C3CCN(C(=O)C4CC4)CC3)CC2)cc1`: the MDR1-MDCK efflux ratio was 2.65; the intrinsic clearance, human liver microsomes was 32.1 mL/min/kg; the intrinsic clearance, rat liver microsomes worked out at 379 mL/min/kg.

In turn, `Cc1cccc(CNC(=O)Cn2c(=O)oc3cccnc32)c1` registered an intrinsic clearance, human liver microsomes of no more than 4.74 mL/min/kg and an intrinsic clearance, rat liver microsomes of no more than 10.7 mL/min/kg.

For `Cc1nc(COc2ccc(F)cc2)sc1C(=O)N1CCC(C)CC1`, the MDR1-MDCK efflux ratio was 0.543; the intrinsic clearance, human liver microsomes was found to be 90.2 mL/min/kg; the intrinsic clearance, rat liver microsomes stood at 2510 mL/min/kg; the aqueous solubility (in general, the concentration that dissolves in the medium under given conditions) worked out at 47.4 µg/mL (≈ 136 µM).

`CN(CC(=O)N(C)C)Cc1cc(C#N)ccc1F`: the MDR1-MDCK efflux ratio is 0.713; the intrinsic clearance, human liver microsomes is no more than 4.74 mL/min/kg; the intrinsic clearance, rat liver microsomes is 38.1 mL/min/kg; the aqueous solubility amounted to 35.4 µg/mL (≈ 142 µM).

`COc1cccc(OC)c1-c1ccc(OCCN2CCCC2)cc1`: the MDR1-MDCK efflux ratio was found to be 1.4; the intrinsic clearance, human liver microsomes is no more than 4.74 mL/min/kg; the intrinsic clearance, rat liver microsomes was 2290 mL/min/kg.

`CS(=O)(=O)NC[C@H]1CC[C@H](Nc2nc3c(s2)CCSc2ccccc2-3)CC1`: the MDR1-MDCK efflux ratio amounted to 1.81; the intrinsic clearance, human liver microsomes worked out at 21.5 mL/min/kg; the intrinsic clearance, rat liver microsomes came out at 247 mL/min/kg.

Take `Cc1n[nH]c(C)c1CCC(=O)N1CCOCC1`: the MDR1-MDCK efflux ratio is 13.5; the intrinsic clearance, human liver microsomes was no more than 4.74 mL/min/kg; the intrinsic clearance, rat liver microsomes is no more than 10.7 mL/min/kg; the aqueous solubility turned out to be 25.6 µg/mL (≈ 108 µM).

On to `COc1cccc(-n2c(S)nnc2COc2cccc3ccccc23)c1`, for which the MDR1-MDCK efflux ratio amounted to 1.07 and the aqueous solubility worked out at 0.26 µg/mL (≈ 0.715 µM).

With `Cc1nn(C)c(C)c1NC(=O)CN1CCN(c2nccs2)CC1`, the MDR1-MDCK efflux ratio was 18.9; the intrinsic clearance, human liver microsomes was no more than 4.74 mL/min/kg; the intrinsic clearance, rat liver microsomes worked out at 14.3 mL/min/kg; the aqueous solubility was found to be 58.2 µg/mL (≈ 174 µM).

For `Cc1ncccc1CNc1nnc(C(C)(C)C)s1`, the MDR1-MDCK efflux ratio was 1.28; the intrinsic clearance, human liver microsomes is no more than 4.74 mL/min/kg; the intrinsic clearance, rat liver microsomes is 19.3 mL/min/kg; the aqueous solubility was 40.9 µg/mL (≈ 156 µM).

On to `Cc1cc(OCC(=O)N(C)C2CCCCCCC2)no1`, for which the MDR1-MDCK efflux ratio is 0.765; the intrinsic clearance, human liver microsomes came out at 56.6 mL/min/kg; the intrinsic clearance, rat liver microsomes came out at 2210 mL/min/kg; the aqueous solubility amounted to 43.9 µg/mL (≈ 156 µM).

Regarding `O=C(CSc1ccc(F)cc1)N1CCCC1`, the MDR1-MDCK efflux ratio was found to be 0.746; the intrinsic clearance, human liver microsomes was determined as 9.35 mL/min/kg; the intrinsic clearance, rat liver microsomes worked out at 117 mL/min/kg; the aqueous solubility came out at 36.2 µg/mL (≈ 151 µM).

As to `Cc1ccc(-c2ccc3c(ccc4sc5c(c43)NC[C@@H](C)NC5=O)n2)cn1`, the MDR1-MDCK efflux ratio is 5.49 and the aqueous solubility is 0.2 µg/mL (≈ 0.534 µM).

For the molecule `O=C(c1cc2ccccc2[nH]1)N1C[C@@H](O)[C@H](N2CCOCC2)C1`, the MDR1-MDCK efflux ratio was found to be 0.428; the intrinsic clearance, human liver microsomes was no more than 4.74 mL/min/kg; the intrinsic clearance, rat liver microsomes turned out to be 17.6 mL/min/kg; the aqueous solubility was 45.6 µg/mL (≈ 145 µM).

The molecule `Cn1cc(C(=O)O)c(-c2cccnc2)n1` returned an aqueous solubility of 40.8 µg/mL (≈ 201 µM).

For the molecule `O=C1NCCN(C(=O)c2ccncc2)C1c1ccccc1Cl` (stereo not drawn), the MDR1-MDCK efflux ratio came to 4.46; the fraction unbound, human plasma is 0.753; the fraction unbound, rat plasma stood at 0.738; the intrinsic clearance, human liver microsomes is no more than 4.74 mL/min/kg. Also, the intrinsic clearance, rat liver microsomes came to 93.1 mL/min/kg and the aqueous solubility worked out at 44.2 µg/mL (≈ 140 µM).

`O=C(NCCCNC(=O)c1cc2ccccc2[nH]1)c1ccc2c(c1)OCCO2`: the MDR1-MDCK efflux ratio stood at 6.74; the intrinsic clearance, human liver microsomes came to 19.3 mL/min/kg; the intrinsic clearance, rat liver microsomes came to 283 mL/min/kg; the aqueous solubility amounted to 40.5 µg/mL (≈ 107 µM).

The molecule `Cc1cc(SCc2ccc(Cl)nc2)nc2ccccc12` returned an intrinsic clearance, human liver microsomes of 327 mL/min/kg and an intrinsic clearance, rat liver microsomes of 1380 mL/min/kg.

For `O=C1CN(C(=O)c2ccc(Cl)cn2)CCN1CCc1ccccc1`, the MDR1-MDCK efflux ratio turned out to be 1.1; the intrinsic clearance, human liver microsomes turned out to be 7.25 mL/min/kg; the intrinsic clearance, rat liver microsomes stood at 499 mL/min/kg.

Consider `Clc1cnc(NCC2(c3ccncc3)CC2)nc1`, for which the intrinsic clearance, human liver microsomes was determined as 26 mL/min/kg and the intrinsic clearance, rat liver microsomes was 472 mL/min/kg.

The molecule `O=C(NCCN1CCC(n2c(=O)[nH]c3cc(Cl)ccc32)CC1)c1ccc(F)cc1` gave an intrinsic clearance, human liver microsomes of 60.9 mL/min/kg and an intrinsic clearance, rat liver microsomes of 373 mL/min/kg.

`Nc1ccc(N2C(=O)CCCC2=O)cc1` returned an aqueous solubility of 28 µg/mL (≈ 137 µM).

Turning to `CCCCN1CCc2nc3cc(C4CC4)nn3c(O)c2C1`, the MDR1-MDCK efflux ratio came to 26.5; the intrinsic clearance, human liver microsomes is no more than 4.74 mL/min/kg; the intrinsic clearance, rat liver microsomes is no more than 10.7 mL/min/kg.

Take `COCC(C)(C)C(=O)N1CCCC2(CCNCC2)CC1`: the MDR1-MDCK efflux ratio worked out at 4.31; the intrinsic clearance, human liver microsomes was no more than 4.74 mL/min/kg; the intrinsic clearance, rat liver microsomes was no more than 10.7 mL/min/kg.

As for `Cc1cc(=O)n(C)c2cc(N3C(=O)CC[C@H](NS(=O)(=O)CC(C)C)[C@H]3c3ccc(Cl)cc3)ccc12`, the MDR1-MDCK efflux ratio was determined as 1.48; the intrinsic clearance, human liver microsomes worked out at 370 mL/min/kg; the intrinsic clearance, rat liver microsomes came out at 944 mL/min/kg; the aqueous solubility was 44.4 µg/mL (≈ 86 µM).

Take `Cc1cc2nc(CCC(=O)N3CCC(c4ccc(C(=O)N(C)C)c(N)n4)CC3)[nH]c2cc1C`: the MDR1-MDCK efflux ratio amounted to 36.2; the intrinsic clearance, human liver microsomes was determined as 107 mL/min/kg; the intrinsic clearance, rat liver microsomes stood at 320 mL/min/kg; the aqueous solubility stood at 39.7 µg/mL (≈ 88.4 µM).

As to `O=C(c1ccccc1-c1ncc(-c2ccccc2F)o1)N1CCC1`, the MDR1-MDCK efflux ratio turned out to be 0.659; the intrinsic clearance, human liver microsomes is 35.1 mL/min/kg; the intrinsic clearance, rat liver microsomes came out at 456 mL/min/kg; the aqueous solubility was determined as 43.6 µg/mL (≈ 135 µM).

Regarding `CSCC[C@@H](CO)n1ccnc1-c1oc2ccccc2c1C`, the MDR1-MDCK efflux ratio turned out to be 3.51; the intrinsic clearance, human liver microsomes worked out at 167 mL/min/kg; the intrinsic clearance, rat liver microsomes was 2000 mL/min/kg; the aqueous solubility worked out at 73.2 µg/mL (≈ 231 µM).

Consider `CC(=O)N(C)[C@@H]1CO[C@@H]2CCN(C[C@]3(O)CC[C@@H](C(C)(C)C)CC3)C[C@@H]2C[C@@]1(C)O`, for which the MDR1-MDCK efflux ratio was determined as 23.5; the intrinsic clearance, human liver microsomes came out at 65 mL/min/kg; the intrinsic clearance, rat liver microsomes was found to be 276 mL/min/kg.

In the case of `O=C(c1ccccn1)N1CCCC(c2cccc(-c3cccc(Cl)c3)n2)C1` (stereo not drawn), the MDR1-MDCK efflux ratio was determined as 0.791; the intrinsic clearance, human liver microsomes was determined as 164 mL/min/kg; the intrinsic clearance, rat liver microsomes amounted to 1300 mL/min/kg; the aqueous solubility came to 29.9 µg/mL (≈ 79.3 µM).

With `COc1ccccc1CC(=O)Nc1ncc(C)s1`, the MDR1-MDCK efflux ratio is 0.674; the intrinsic clearance, human liver microsomes stood at 17.7 mL/min/kg; the intrinsic clearance, rat liver microsomes is 261 mL/min/kg; the aqueous solubility was 6.6 µg/mL (≈ 25.2 µM).

`Cc1cc(NC(=O)c2ccc(Cl)cc2F)no1` registered an aqueous solubility of 7 µg/mL (≈ 27.5 µM).

Consider `O=C1NCC2(C/C=C/CCOc3ccccc31)CCN(C(=O)c1ccc3[nH]nnc3c1)CC2`, for which the MDR1-MDCK efflux ratio was determined as 45.8; the intrinsic clearance, human liver microsomes was determined as 42.8 mL/min/kg; the intrinsic clearance, rat liver microsomes amounted to 165 mL/min/kg; the aqueous solubility is 24.4 µg/mL (≈ 54.9 µM).

Consider `COc1ccc(CN(C)c2ncncc2Br)cc1O`, for which the intrinsic clearance, human liver microsomes amounted to 25.9 mL/min/kg; the intrinsic clearance, rat liver microsomes turned out to be 211 mL/min/kg; the aqueous solubility is 55.6 µg/mL (≈ 172 µM).

In turn, `C=C(C)COc1ccc(C(=O)NCCc2cn3ccccc3n2)cc1` had an intrinsic clearance, human liver microsomes of 116 mL/min/kg; an intrinsic clearance, rat liver microsomes of 2190 mL/min/kg; an aqueous solubility of 27.4 µg/mL (≈ 81.7 µM).

Molecule `CN(C)[C@@H]1CN(C(=O)COc2ccccc2)C[C@H]1O` showed an intrinsic clearance, human liver microsomes of no more than 4.74 mL/min/kg; an intrinsic clearance, rat liver microsomes of 17.6 mL/min/kg; an aqueous solubility of 83.3 µg/mL (≈ 315 µM).

In the case of `CC(C)NC(=O)c1cc(-c2ccccc2)n(-c2ccccn2)n1`, the MDR1-MDCK efflux ratio amounted to 0.762; the intrinsic clearance, human liver microsomes is 8.11 mL/min/kg; the intrinsic clearance, rat liver microsomes is 80.5 mL/min/kg; the aqueous solubility is 54.1 µg/mL (≈ 176 µM).

As for `CN1CCC(Cc2cccc(-c3nccs3)n2)C1` (stereo not drawn), the MDR1-MDCK efflux ratio was 1.16; the intrinsic clearance, human liver microsomes turned out to be 43 mL/min/kg; the intrinsic clearance, rat liver microsomes worked out at 2030 mL/min/kg.

Consider `O=C1CCCN1c1ccc(S(=O)(=O)Nc2cccc(-c3nnc4n3CCC4)c2)cc1`, for which the MDR1-MDCK efflux ratio came to 9.93.

On to `CCCc1cc(C)nc(O)c1CNC(=O)c1cc(-c2ccc(N3CCN(C(C)C)CC3)nc2)cc2c1cnn2C(C)C`, for which the MDR1-MDCK efflux ratio is 122; the intrinsic clearance, human liver microsomes was found to be 120 mL/min/kg; the intrinsic clearance, rat liver microsomes turned out to be 235 mL/min/kg.

For the molecule `O=C(NCCN1C(=O)CSC1=O)c1cc(Cl)c2c(c1)OCO2`, the MDR1-MDCK efflux ratio is 2.69; the intrinsic clearance, human liver microsomes stood at 13 mL/min/kg; the intrinsic clearance, rat liver microsomes was 83 mL/min/kg; the aqueous solubility was 39.6 µg/mL (≈ 116 µM).

On to `Cc1noc(C)c1C(=O)N1CCCN(c2ccc(F)cc2)CC1`, for which the MDR1-MDCK efflux ratio stood at 1.8; the intrinsic clearance, human liver microsomes is 111 mL/min/kg; the intrinsic clearance, rat liver microsomes stood at 566 mL/min/kg; the aqueous solubility turned out to be 55.6 µg/mL (≈ 175 µM).

Turning to `Cc1cccc(NC(=O)c2cccc3ncccc23)c1`, the MDR1-MDCK efflux ratio was 0.471; the intrinsic clearance, human liver microsomes is 22.2 mL/min/kg; the intrinsic clearance, rat liver microsomes is 155 mL/min/kg; the aqueous solubility turned out to be 4.85 µg/mL (≈ 18.5 µM).

Turning to `COc1ncc(C(=O)NCc2cnn3cccnc23)cn1`, the MDR1-MDCK efflux ratio is 2.54; the intrinsic clearance, human liver microsomes is no more than 4.74 mL/min/kg; the intrinsic clearance, rat liver microsomes was no more than 10.7 mL/min/kg.

As for `COc1ncc(-c2cccc(N(C)C)c2)c(OC)n1`, the intrinsic clearance, human liver microsomes was 193 mL/min/kg; the intrinsic clearance, rat liver microsomes came out at 2230 mL/min/kg; the aqueous solubility turned out to be 24.9 µg/mL (≈ 96 µM).

For the molecule `CNCc1cc(N(C)C)nc(C2CCCN2C(=O)c2ccccc2-c2ccccc2)n1` (stereo not drawn), the MDR1-MDCK efflux ratio was found to be 65.4; the intrinsic clearance, human liver microsomes worked out at 30.8 mL/min/kg; the intrinsic clearance, rat liver microsomes was found to be 228 mL/min/kg.

In turn, `N#Cc1cccc(NC(=O)C2CCC2)c1` returned an aqueous solubility of 33.8 µg/mL (≈ 169 µM).
